Results as given in US20100113599A1, “AMPHIPATHIC CARBOXYLATES FOR THE TREATMENT OF IMMUNE-RELATED DISORDERS” (Syndromex Ltd. c/o Yissum Research Development Company, of, priority 2007, published 2010).

What was measured:
STAT3, GP130 = experiment: STAT3 activation and GP130 in stimulated spleen cells of treated EAE mice (Western blot); assay type: in vivo; conditions: EAE mice 60 mg/kg/day 12 days by gavage
Method: To further investigate the preventive potential of MEDICA drugs, and specifically of M16αα on EAE model, the effect of these drugs on different pathways involving activation of the immune system have been next examined. Therefore, female mice were treated with M16αα (60 mg/kg/day) or vehicle (1% CMC, the control group) for 12 days by gavage. On the third day EAE has been induced by injection of the MOG35-55 peptide. Nine days following MOG35-55 peptide immunization, mice were anesthesized and sacrificed. Spleenocytes were prepared and were stimulated in vitro with either MOG (100 μg/ml) or LPS (50 μg/ml) and the activation of STAT3 was analyzed by Western blot using anti p-STAT3 (Y705) and anti GP130 antibodies. Liver was immediately frozen in liquid nitrogen and kept at −70 until used for protein and RNA preparation. Total RNA was prepared and analyzed by real time PCR for SAP, SAA, α-fibrinogen and IL-6 gene expression.

STAT3 = experiment: IL-6-induced STAT3 phosphorylation in Hek293 kidney cells (Western blot); assay type: cell-based; conditions: 250 μM 9 h, serum free medium 0.2% Albumin, IL-6 20 ng/ml last 5.5 h
Method: Hek293 cells were incubated for 9 h with M16αα (250 μM) in serum free medium containing 0.2% Albumin. IL-6 (20 ng/ml) was added during the last 5.5 h period. Western blots of cell lysates were reacted with anti gp130 and anti P-STAT3 (Y705) antibodies and normalized by β-actin. Abbreviations: cont. (control).
The examined effect of MEDICA drugs on expression of APP, was further analyzed by analyzing the effect of M16αα on downstream elements in the signaling pathway leading to expression of APP. Signal Transducers and Activators of Transcription 3 (STAT3), is a transcription factor phosphorylated by JAK kinases in response to cytokine activation of a cell surface receptor tyrosine kinases. Cytokines that activate STAT3 include growth hormone, IL-6 family cytokines, Oncostatin, LIF, CNTF and G-CSF, Leptin and others. As illustrated by FIG. 1, upon cytokine activation, the STAT3 proteins dimerize and are localized to the nucleus where they activate transcription of APP as well as of other cytokine-responsive genes coding for cell survival, growth and proliferation. Therefore, the inventors next examined whether the effect of MEDICA drugs on the expression of APP is a result of interfering with STAT3 transcription activity or whether MEDICA drugs are involved in a more upstream element of the transduction pathway such as the gp130 receptor. […]

HT29 colon cancer cells = experiment: HT29 cell number, trypan blue exclusion assay; assay type: cell-based; conditions: 200 μM, days 1, 2, 3 and 6
Method: Abbreviations: D. (days) cont, (control), RCN (relative cell number).
Cells were cultured in Dulbecco's Modified Eagle Medium (DMEM) supplemented with 10% fetal calf serum, glutamine and antibiotics (100,000 units/L penicillin and 100 mg/L streptomycin sulfate).
The involvement of MEDICA drugs in signal transduction pathways related to immuno-modulatory mechanisms have led the inventors to further investigate the effect of the MEDICA drugs in different disorders associated with abnormal immune reaction. Since cancerous processes may be promoted as a result of interruption of the Th1/Th2 balance, the possible beneficial effect of the MEDICA drugs on tumor proliferation and progression have been next examined. The effect of different concentrations M16αα on cell proliferation was first examined in vitro using the HT29 colon cancer cells as a model for colon cancer. Cells were cultured in the presence of different concentrations of M16αα (50, 100, and 200 μM). Samples obtained from days 1, 2, 3 and 6 were analyzed for cell number using the trypan blue exclusion assay. Proliferation was measured by BrdU incorporation assay.

RPMI8226 cells = experiment: Growth of Multiple Myeloma RPMI8226 cells, Trypan Blue exclusion; assay type: cell-based; conditions: 200 μM, from day one
Method: Growth Suppression by M16αα of Multiple Myeloma (MM) cells. MM cells were incubated in RPMI 1640 medium in the presence of added M16αα as indicated. Cell number was determined daily by Trypan Blue exclusion.
The inhibitory effect of MEDICA drugs on colon tumor cell proliferation, presumably via activation of apoptosis, encouraged the inventors to further investigate the potential beneficial effect of these compounds on other malignancies. The inventors therefore next examined the effect of the MEDICA drugs using the Multiple myeloma model. U-266 and RPMI-8226 cell lines served as cell models for MM. MM cells were incubated in RPMI 1640 medium in the presence of M16αα as indicated. Cell number was determined daily by Trypan Blue exclusion assay. […] It should be noted that generally, these cells were more sensitive even to lower concentrations of M16αα.

gp130 transcript = gp130 transcript levels in HepG2 cells (real time RT-PCR); assay type: cell-based, human; conditions: 200 μM up to 40 h (2, 4, 8, 24, 40 h), normalized with GAPDH
Method: As shown by FIGS. 5-7, treatment of M16αα results in reduction in the protein levels of gp130, which is the tyrosine kinase receptor upstream to STAT3 in this pathway. The inventors thus next examined whether M16αα affects gp130 at the transcription level. Therefore, HepG2 cells were incubated with M16αα (200 μM) for up to 40 h. Total RNA was prepared at 2 h, 4 h, 8 h, 24 h and 40 h, and gp130 transcription was analyzed by real time RT-PCR and normalized with GAPDH.

## CC(C)(CCCCCCCCCCCCC(C)(C)C(=O)O)C(=O)O [M16αα, 2,2,15,15-tetramethyl-hexadecanedioic acid]
STAT3, GP130; spleenocytes stimulated in vitro with LPS 50 μg/ml
  LPS-induced STAT3 (p-STAT3 Y705) in spleen cells: not the LPS-induced STAT3 is suppressed
STAT3, GP130; spleenocytes stimulated in vitro with MOG 100 μg/ml
  MOG-induced STAT3 (p-STAT3 Y705) in spleen cells: suppressed
STAT3
  IL-6-induced phosphorylation of STAT3 Y705: Inhibition
HT29 colon cancer cells
  cell number (relative cell number): significant reduction
RPMI8226 cells
  cell number relative to control: about 20 % of control
gp130 transcript
  gp130 transcript levels: remained unaffected
